Paper PMC2584039 (Molecular Pain, 2008)

Key:
[1] = test system: TRPA1; design: method as in Petrus et al. (2007); details: mouse; ref Petrus et al. (2007); cited from earlier work
[2] = target: T1, human TRPA1 (Homo sapiens, UniProt O75762); assay: cell-based
T1 construct: Full length human TRPA1 cDNA was purchased from Origene Technologies; host or cells: HEK-293 (Invitrogen Flp-In system, hygromycin B selection)

[3] = test system: spinal nerve ligation induced mechanical hypersensitivity; details: rat, in vivo

T1 sequence (O75762 whole entry): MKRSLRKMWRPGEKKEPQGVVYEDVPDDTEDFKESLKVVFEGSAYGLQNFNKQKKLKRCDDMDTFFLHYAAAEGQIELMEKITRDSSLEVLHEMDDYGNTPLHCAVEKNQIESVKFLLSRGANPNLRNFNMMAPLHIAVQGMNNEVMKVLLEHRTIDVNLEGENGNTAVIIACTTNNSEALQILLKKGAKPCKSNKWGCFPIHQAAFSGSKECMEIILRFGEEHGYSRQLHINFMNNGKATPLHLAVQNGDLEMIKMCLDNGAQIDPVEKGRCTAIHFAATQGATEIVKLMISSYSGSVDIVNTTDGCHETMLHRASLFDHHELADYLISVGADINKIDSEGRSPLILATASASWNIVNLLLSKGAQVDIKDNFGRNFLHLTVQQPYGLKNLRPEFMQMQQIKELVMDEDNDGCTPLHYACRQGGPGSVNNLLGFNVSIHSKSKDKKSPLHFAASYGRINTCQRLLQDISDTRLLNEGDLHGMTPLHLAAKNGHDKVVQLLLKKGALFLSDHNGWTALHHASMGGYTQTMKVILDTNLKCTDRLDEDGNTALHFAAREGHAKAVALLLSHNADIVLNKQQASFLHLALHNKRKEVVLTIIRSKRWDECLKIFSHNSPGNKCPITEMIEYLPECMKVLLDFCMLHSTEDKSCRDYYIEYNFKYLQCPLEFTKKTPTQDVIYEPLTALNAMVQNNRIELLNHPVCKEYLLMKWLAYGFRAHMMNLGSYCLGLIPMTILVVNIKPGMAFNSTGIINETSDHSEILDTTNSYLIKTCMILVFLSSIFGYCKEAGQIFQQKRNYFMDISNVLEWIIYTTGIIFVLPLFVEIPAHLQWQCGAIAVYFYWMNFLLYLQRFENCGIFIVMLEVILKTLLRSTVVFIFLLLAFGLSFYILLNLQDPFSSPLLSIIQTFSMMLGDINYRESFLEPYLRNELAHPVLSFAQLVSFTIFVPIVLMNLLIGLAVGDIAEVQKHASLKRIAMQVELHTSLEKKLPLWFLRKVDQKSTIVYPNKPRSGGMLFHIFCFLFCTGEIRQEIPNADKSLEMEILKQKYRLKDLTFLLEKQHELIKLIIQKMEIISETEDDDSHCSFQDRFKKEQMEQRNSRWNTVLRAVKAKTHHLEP

CC(=C\c1ccc(Cl)cc1)/C(C)=N/O [AP18]
IC50 [1]: 4.5 µM

O=C/C=C/c1ccccc1 [cinnamaldehyde]
EC50 [2]: 15.9 µM

CC(C)C[C@H](CN)CC(=O)O [pregabalin]
effect on SNL mechanical hypersensitivity vs vehicle [3]: significant attenuation | percent reversal of SNL-induced mechanical hypersensitivity [3]: 56%
